How the values were obtained:
Assay in all cases: biochemical
Set-up in all cases: DiscoverX kinase panel, active-site competition binding (KINOMEscan type), percent of control at one concentration
Details in all cases: competition binding, percent of control
[1] = molecular target: EGFR(T790M) (Homo sapiens, UniProt P00533, T790M)
[2] = molecular target: PKMYT1 (Homo sapiens, UniProt Q99640)
[3] = molecular target: ALK (Homo sapiens, UniProt Q9UM73)
[4] = molecular target: EPHB3 (Homo sapiens, UniProt P54753)
[5] = molecular target: PIK3CA(M1043I) (Homo sapiens, UniProt P42336, M1043I)
[6] = molecular target: MELK (Homo sapiens, UniProt Q14680)
[7] = molecular target: PIK3CA(E542K) (Homo sapiens, UniProt P42336, E542K)
[8] = molecular target: CSNK2A1 (Homo sapiens, UniProt P68400)
[9] = molecular target: IGF1R (Homo sapiens, UniProt P08069)
[10] = molecular target: TSSK3 (Homo sapiens, UniProt Q96PN8)
[11] = molecular target: SNRK (Homo sapiens, UniProt Q9NRH2)
[12] = molecular target: CSNK1A1L (Homo sapiens, UniProt Q8N752)
[13] = molecular target: LRRK2(G2019S) (Homo sapiens, UniProt Q5S007, G2019S)
[14] = molecular target: T1, ABL1-phosphorylated (Homo sapiens, UniProt P00519)
T1 construct: phosphorylated

[15] = molecular target: T2, RSK4(Kin.Dom.1-N-terminal) (Homo sapiens, UniProt Q9UK32)
T2 construct: gene RPS6KA6; Kin.Dom.1-N-terminal

[16] = molecular target: PKNB(M.tuberculosis) (Mycobacterium tuberculosis, UniProt P9WI81)
[17] = molecular target: PIK3CG (Homo sapiens, UniProt P48736)
[18] = molecular target: T3, DMPK2 (Homo sapiens, UniProt Q6DT37)
T3 construct: gene CDC42BPG

[19] = molecular target: FGFR2 (Homo sapiens, UniProt P21802)
[20] = molecular target: TRPM6 (Homo sapiens, UniProt Q9BX84)
[21] = molecular target: DYRK2 (Homo sapiens, UniProt Q92630)
Chain of DYRK2 (Q92630 whole entry): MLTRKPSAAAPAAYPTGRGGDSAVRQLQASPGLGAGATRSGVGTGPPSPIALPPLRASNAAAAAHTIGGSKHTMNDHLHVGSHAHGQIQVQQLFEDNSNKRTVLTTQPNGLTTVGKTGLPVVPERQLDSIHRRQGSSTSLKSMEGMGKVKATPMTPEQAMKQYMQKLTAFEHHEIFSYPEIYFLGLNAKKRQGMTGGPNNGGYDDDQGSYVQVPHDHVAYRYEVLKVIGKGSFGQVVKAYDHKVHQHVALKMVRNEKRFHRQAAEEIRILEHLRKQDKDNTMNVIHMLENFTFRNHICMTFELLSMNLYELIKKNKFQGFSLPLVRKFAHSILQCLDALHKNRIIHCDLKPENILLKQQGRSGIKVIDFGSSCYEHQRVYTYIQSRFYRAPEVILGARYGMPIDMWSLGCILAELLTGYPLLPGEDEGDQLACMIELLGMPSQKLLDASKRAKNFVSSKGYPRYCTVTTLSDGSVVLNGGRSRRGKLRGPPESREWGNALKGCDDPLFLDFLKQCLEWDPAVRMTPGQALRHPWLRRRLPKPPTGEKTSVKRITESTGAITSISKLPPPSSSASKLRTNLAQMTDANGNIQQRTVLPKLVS

Chain of FGFR2 (P21802 whole entry): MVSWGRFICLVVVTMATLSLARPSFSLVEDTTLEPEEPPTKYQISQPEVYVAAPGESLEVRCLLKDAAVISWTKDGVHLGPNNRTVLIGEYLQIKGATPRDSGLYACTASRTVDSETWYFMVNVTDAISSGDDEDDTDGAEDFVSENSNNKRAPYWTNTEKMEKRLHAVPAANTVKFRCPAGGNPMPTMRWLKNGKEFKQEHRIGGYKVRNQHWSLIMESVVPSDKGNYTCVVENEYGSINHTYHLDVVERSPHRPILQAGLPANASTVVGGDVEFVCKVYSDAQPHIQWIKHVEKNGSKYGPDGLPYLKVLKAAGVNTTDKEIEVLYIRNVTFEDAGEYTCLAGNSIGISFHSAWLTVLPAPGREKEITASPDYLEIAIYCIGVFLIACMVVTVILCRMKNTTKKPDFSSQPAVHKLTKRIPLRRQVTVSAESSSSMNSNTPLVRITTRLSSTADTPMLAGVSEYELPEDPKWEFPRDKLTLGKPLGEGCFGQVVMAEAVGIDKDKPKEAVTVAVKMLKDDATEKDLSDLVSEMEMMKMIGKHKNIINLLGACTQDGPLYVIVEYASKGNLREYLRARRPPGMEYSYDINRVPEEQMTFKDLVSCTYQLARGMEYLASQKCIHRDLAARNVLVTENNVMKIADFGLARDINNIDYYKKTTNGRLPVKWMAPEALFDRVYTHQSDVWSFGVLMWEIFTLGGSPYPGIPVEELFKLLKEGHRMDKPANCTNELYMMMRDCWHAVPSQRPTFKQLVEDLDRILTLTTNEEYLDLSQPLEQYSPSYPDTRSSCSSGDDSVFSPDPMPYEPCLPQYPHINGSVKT
Chain of SNRK (Q9NRH2 whole entry): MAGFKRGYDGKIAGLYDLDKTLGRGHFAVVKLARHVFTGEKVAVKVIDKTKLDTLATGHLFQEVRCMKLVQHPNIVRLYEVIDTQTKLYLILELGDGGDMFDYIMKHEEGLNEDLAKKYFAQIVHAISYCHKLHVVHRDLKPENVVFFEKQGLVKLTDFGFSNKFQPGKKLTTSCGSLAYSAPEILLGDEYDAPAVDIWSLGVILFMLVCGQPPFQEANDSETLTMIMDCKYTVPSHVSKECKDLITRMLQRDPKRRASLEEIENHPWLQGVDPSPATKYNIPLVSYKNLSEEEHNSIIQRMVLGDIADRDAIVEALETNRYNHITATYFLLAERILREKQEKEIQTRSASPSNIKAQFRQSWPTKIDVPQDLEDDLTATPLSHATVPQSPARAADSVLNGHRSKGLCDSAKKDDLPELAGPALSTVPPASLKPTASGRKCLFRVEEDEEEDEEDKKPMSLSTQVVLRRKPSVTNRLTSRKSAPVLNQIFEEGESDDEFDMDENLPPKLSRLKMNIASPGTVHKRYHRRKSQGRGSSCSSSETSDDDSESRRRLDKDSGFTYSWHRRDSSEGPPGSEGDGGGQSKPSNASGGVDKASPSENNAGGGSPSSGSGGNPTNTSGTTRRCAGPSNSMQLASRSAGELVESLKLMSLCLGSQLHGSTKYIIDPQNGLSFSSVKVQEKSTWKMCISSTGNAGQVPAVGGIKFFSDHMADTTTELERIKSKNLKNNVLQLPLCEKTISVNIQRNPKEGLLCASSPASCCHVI
T3 sequence (Q6DT37 whole entry): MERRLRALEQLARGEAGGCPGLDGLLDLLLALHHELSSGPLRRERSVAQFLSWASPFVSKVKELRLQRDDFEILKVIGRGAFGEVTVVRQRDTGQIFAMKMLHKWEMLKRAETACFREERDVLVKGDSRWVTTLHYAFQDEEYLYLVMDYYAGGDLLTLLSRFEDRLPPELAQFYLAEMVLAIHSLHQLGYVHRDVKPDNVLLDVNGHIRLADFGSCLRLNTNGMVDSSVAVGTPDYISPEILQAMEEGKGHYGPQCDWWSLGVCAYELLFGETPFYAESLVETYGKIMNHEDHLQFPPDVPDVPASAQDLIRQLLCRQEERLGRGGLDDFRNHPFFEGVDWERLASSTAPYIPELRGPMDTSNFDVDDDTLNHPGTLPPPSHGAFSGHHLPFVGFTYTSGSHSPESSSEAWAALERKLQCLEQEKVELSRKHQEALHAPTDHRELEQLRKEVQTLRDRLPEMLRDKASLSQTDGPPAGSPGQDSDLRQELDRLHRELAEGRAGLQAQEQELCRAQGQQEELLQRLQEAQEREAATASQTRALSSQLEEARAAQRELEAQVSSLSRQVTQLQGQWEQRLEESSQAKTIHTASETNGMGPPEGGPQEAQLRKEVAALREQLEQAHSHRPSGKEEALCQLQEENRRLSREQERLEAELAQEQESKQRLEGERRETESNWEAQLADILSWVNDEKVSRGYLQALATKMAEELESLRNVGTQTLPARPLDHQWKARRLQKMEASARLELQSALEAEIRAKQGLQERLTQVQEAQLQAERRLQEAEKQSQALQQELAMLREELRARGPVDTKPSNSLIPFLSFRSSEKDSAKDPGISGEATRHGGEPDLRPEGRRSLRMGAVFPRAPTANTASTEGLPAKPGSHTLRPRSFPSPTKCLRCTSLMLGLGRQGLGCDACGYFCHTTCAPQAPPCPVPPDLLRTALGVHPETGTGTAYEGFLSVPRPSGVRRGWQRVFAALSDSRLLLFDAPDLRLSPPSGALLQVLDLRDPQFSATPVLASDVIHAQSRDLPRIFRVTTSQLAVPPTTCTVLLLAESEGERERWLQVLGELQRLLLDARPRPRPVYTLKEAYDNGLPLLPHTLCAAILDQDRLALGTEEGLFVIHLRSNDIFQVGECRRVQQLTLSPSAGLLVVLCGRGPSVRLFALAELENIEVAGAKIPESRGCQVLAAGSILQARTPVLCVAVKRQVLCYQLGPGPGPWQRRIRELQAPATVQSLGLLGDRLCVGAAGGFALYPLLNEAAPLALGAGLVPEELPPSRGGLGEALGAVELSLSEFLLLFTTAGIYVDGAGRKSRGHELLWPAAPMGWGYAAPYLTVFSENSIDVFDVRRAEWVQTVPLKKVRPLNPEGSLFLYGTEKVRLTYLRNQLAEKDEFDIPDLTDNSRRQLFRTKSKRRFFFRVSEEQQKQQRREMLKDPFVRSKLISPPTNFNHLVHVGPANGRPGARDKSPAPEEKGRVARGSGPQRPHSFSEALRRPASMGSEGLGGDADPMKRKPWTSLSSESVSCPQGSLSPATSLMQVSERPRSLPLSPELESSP
Chain of MELK (Q14680 whole entry): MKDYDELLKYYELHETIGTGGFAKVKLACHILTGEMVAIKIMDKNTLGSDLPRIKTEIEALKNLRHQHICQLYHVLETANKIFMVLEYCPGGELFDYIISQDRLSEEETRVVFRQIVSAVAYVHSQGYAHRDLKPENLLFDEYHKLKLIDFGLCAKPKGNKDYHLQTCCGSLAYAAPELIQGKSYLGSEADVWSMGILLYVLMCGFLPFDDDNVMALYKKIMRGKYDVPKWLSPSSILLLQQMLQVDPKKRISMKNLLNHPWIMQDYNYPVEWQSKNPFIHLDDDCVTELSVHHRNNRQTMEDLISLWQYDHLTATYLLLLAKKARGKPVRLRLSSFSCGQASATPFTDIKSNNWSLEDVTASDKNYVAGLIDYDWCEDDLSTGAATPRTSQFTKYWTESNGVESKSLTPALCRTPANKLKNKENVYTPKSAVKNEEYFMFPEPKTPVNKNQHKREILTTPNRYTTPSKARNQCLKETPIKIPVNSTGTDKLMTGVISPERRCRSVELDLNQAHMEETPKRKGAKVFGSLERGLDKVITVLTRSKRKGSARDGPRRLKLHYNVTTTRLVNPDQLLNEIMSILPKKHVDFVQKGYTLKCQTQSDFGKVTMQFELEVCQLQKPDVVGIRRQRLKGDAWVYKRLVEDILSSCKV
Chain of PKMYT1 (Q99640 whole entry): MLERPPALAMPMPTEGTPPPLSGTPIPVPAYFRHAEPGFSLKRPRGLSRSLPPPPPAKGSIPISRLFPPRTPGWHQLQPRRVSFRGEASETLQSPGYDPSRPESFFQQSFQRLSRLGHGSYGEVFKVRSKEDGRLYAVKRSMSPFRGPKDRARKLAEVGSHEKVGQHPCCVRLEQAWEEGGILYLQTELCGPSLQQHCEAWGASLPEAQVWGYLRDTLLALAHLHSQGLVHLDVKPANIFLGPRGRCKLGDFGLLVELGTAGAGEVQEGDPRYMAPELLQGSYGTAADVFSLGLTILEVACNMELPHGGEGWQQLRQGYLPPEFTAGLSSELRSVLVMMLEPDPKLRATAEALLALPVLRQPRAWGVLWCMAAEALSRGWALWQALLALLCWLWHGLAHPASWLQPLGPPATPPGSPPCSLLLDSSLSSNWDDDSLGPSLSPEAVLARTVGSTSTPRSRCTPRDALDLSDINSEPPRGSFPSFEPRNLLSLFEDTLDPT

COc1cc2c(cn1)N(C)C(=O)[C@@H](NC(=O)c1nc3n(n1)[C@H](c1ccccc1)CC3)CC2 [GNE684, (S)-N-((S)-7-methoxy-1-methyl-2-oxo-2,3,4,5-tetrahydro-1H-pyrido[3,4-b]azepin-3-yl)-5-phenyl-6,7-dihydro-5H-pyrrolo[1,2-b][1,2,4]triazole-2-carboxamide]
remaining binding at 10 µM [1]: 100%
remaining binding at 10 µM [2]: 99%
remaining binding at 10 µM [3]: 81%
remaining binding at 10 µM [4]: 100%
remaining binding at 10 µM [5]: 99%
remaining binding at 10 µM [6]: 93%
remaining binding at 10 µM [7]: 41%
remaining binding at 10 µM [8]: 93%
remaining binding at 10 µM [9]: 87%
remaining binding at 10 µM [10]: 96%
remaining binding at 10 µM [11]: 93%
remaining binding at 10 µM [12]: 100%
remaining binding at 10 µM [13]: 97%
remaining binding at 10 µM [14]: 84%
remaining binding at 10 µM [15]: 100%
remaining binding at 10 µM [16]: 96%
remaining binding at 10 µM [17]: 89%
remaining binding at 10 µM [18]: 100%
remaining binding at 10 µM [19]: 99%
remaining binding at 10 µM [20]: 87%
remaining binding at 10 µM [21]: 87%

Reference: paper PMC7206119, “RIP1 inhibition blocks inflammatory diseases but not tumor growth or metastases” (Cell Death and Differentiation, 2019)
